The text below walks through data of publication PMC5038320, “Cryptosporidium and Toxoplasma Parasites Are Inhibited by a Benzoxaborole Targeting Leucyl-tRNA Synthetase” (Antimicrobial Agents and Chemotherapy, 2016).

The target in assay [1] is T1, C. muris cytosolic leucyl-tRNA synthetase (CmLeuRS) editing domain (Cryptosporidium muris, UniProt B6AA20).
T1 construct: gene CMU_041310; connective polypeptide domain (CP1) residues 254 to 541
Description: ITC; crystal structure ([…] Å). The class given is binding.

In assay [2] the target is T1, C. muris cytosolic leucyl-tRNA synthetase (CmLeuRS) editing domain. Nature of the assay: ITC; crystal structure ([…] Å). The class given is binding. This is another data set of the same source. (ITC needs no label: the signal is the heat of the interaction.)

pKd: −log10 of the molar value. Like-named read-outs stand apart in the source and are kept apart here.

T1 sequence (B6AA20 entry or part of it): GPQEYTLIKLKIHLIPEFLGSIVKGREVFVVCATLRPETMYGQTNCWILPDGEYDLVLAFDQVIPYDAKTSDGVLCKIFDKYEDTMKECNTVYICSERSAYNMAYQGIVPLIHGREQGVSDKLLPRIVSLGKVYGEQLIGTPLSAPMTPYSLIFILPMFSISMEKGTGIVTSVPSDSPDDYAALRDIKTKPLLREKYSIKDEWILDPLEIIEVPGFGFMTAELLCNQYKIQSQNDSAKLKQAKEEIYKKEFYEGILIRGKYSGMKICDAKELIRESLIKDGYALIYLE

As for `CC[C@H](C)[C@H](N)C(=O)N[C@@H]1[C@H](O)[C@@H](CO)O[C@H]1n1cnc2c(N)ncnc21` [Ile2AA, 2-(L-isoleucyl)amino-2-deoxyadenosine], the pKd – broadly, −log10 of the Kd, conventionally taken in molar units – in assay [1] is 3.67.

Consider `CCC[C@H](N)C(=O)N[C@@H]1[C@H](O)[C@@H](CO)O[C@H]1n1cnc2c(N)ncnc21` [Nva2AA, 2-(L-norvalyl)amino-2-deoxyadenosine], for which the pKd in assay [2] is 3.67.
